Entries after “also recorded” stand apart in the source; their conditions may differ.

Series [1] has as its target T1, Bcrp1 (Mus musculus, UniProt Q7TMS5).
T1 sequence (Q7TMS5 1-657): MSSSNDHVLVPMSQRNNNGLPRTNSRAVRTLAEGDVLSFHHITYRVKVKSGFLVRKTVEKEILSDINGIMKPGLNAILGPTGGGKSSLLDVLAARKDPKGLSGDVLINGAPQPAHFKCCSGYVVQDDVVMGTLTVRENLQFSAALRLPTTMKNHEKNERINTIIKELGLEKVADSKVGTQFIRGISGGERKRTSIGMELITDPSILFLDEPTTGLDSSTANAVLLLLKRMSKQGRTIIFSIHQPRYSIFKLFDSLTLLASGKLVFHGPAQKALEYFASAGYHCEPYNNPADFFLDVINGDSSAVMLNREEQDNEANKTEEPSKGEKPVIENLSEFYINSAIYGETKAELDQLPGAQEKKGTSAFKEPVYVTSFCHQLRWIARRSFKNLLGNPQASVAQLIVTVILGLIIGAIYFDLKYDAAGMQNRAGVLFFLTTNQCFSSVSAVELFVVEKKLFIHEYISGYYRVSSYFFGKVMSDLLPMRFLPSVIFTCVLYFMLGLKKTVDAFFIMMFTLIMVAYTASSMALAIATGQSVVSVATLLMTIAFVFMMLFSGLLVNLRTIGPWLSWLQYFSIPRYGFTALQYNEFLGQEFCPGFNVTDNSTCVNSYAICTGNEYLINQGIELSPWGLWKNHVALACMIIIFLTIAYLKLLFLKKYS
Kind of series: Milk secretion of radiolabelled compounds after intravenous administration to lactating wild-type and Bcrp1-/- mice. Type of series: in vivo. The arrangement: Bcrp1 was detected primarily in the apical membrane of alveolar epithelial cells; from tissue; host or cells: mammary gland of lactating wild-type mice (Bcrp1-/- mice as control). Particulars: for milk secretion in Bcrp1-/- compared to wild-type mice: lactating wild-type vs Bcrp1-/- mice; for milk-to-plasma (M/P) ratio: lactating Bcrp1-/- mice; for milk-to-plasma (M/P) ratio / milk secretion in wild-type mice: 1 mg kg-1 intravenously, 30 min; for milk secretion in wild-type mice: lactating wild-type mice.
Procedure: (§1) For intravenous drug administration, 5 µl drug solution per g body weight was injected into the tail vein of mice lightly anesthetised with methoxyflurane. Levels of radioactivity in plasma and milk were determined by liquid scintillation counting. Measurements of drug secretion into the milk were done in lactating dams with pups of approximately 10 days old. To stimulate milk secretion, oxytocin (200 µl of an 1 I.U. ml^-1 solution) was administered subcutaneously to lactating dams at 30 min before milk was collected. After intravenous administration of a drug, at the indicated time approximately 50 µl milk was collected from the 4th and 5th mammary glands by gentle vacuum suction. Immediately after milk collection, a small blood sample was collected from the tail.

The subject of series [2] is Bcrp1. As to the kind of experiment: Inhibition of Bcrp1-mediated milk secretion of topotecan by GF120918. Particulars: GF120918 250 mg/kg orally 2 hours before [14C]-topotecan 1 mg/kg i.v., lactating mice. Type of series: in vivo. On the procedure: GF120918 was suspended at […] in water for injection and concentrated stock vehicle (1:1). The concentrated stock vehicle consisted of hydroxypropyl methyl cellulose (10 g/l) and 2% Tween 80 in water for injection. Animals were administered GF120918 (250 mg/kg; 10 µl of drug solution/g body weight) by gavage into the stomach at 2 hours before [^14C]-topotecan injection. [^14C]-topotecan (1 mg/kg) was injected into the vein of mice lightly anesthetized with methoxyflurane. To stimulate milk secretion, oxytocin (200 µl of 1 I.U./ml solution) was administered subcutaneously to lactating dams at 15 min before each milk sample was collected. At indicated time points (15, 30, 60 and 120 min after [^14C]-topotecan injection), 50 µl of milk was collected from the mammary glands by gentle vacuum suction. […] At the last sampling point, animals were sacrificed by cardiac puncture after anesthesia with methoxyflurane.

A further series addresses T2, human BCRP (Homo sapiens, UniProt Q9UNQ0).
T2 construct: made in house; host or cells: Sf9 insect cells infected with BCRP-expressing baculovirus (membrane vesicles)
T2 sequence (Q9UNQ0 1-655): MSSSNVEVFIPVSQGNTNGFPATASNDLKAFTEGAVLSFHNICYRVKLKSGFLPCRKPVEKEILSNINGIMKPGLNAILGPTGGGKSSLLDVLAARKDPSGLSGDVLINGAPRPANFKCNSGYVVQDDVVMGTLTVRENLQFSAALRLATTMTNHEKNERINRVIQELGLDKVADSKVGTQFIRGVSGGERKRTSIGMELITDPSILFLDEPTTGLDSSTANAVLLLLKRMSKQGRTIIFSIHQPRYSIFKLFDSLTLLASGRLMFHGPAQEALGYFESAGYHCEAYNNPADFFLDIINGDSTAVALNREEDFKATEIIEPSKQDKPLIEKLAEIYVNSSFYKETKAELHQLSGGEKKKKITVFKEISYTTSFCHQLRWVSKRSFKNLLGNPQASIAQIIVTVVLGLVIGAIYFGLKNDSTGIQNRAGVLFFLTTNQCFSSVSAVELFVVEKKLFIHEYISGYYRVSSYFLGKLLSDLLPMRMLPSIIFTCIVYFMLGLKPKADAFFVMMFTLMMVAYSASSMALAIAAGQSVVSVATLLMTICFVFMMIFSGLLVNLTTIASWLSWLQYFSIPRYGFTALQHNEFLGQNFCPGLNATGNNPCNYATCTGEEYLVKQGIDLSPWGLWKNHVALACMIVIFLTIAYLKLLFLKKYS
Kind of series: Vesicular transport assay (inside-out vesicle uptake, Sf9 membrane vesicles). The format is biochemical. The note with it: 3H-riboflavin 0.25 µM, vesicles from Sf9 cells with BCRP-expressing or wild-type baculovirus, 4 mM ATP. On the procedure: Vesicular transport assays were performed as described (Ozvegy, C., et al. Functional characterization of the human multidrug transporter, ABCG2, expressed in insect cells. Biochem. Biophys. Res. Commun. 285, 111-117 (2001); Zelcer, N., et al. Evidence for two interacting ligand-binding sites in human MRP2 (ABCC2). J. Biol. Chem. 278, 23538-23544 (2003)), using vesicles from Sf9 cells infected with BCRP-expressing or wild-type baculovirus, in the presence or absence of 4 mM ATP. ATP-dependent transport was calculated by subtracting the uptake in absence of ATP from that in the presence of ATP.

Series [3] addresses T1, Bcrp1. Particulars: in vivo.
Procedure: as §1
Samples were protected from light during the whole sample pre-treatment. Methanol (4 times the sample volume) was added to plasma and milk samples to precipitate proteins. […] The flow was 1.0 ml min^-1 and the detection was performed fluorimetrically using a FP920 Intelligent Fluorescence Detector (Jasco International Co. Ltd., Tokyo, Japan) with excitation/emission wavelengths set at 372/520 nm and 40 nm bandwidth. The capacity of the flow-cell of the fluorescence detector was 16 µl. […] Calibration curves were calculated by least-squares linear regression using a weighting factor of the reciprocal of the concentration.

Turning to `C[C@]12CC[C@H](OS(=O)(=O)O)CC1=CC[C@@H]1[C@@H]2CC[C@]2(C)C(=O)CC[C@@H]12` [DHEAS, dehydroepiandrosterone-sulfate], on Bcrp1 [1], the “milk secretion in Bcrp1-/- compared to wild-type mice” value is “not affected”. On to `COc1cc2c(cc1OC)CN(CCc1ccc(NC(=O)c3cccc4c(=O)c5cccc(OC)c5[nH]c34)cc1)CC2` [GF120918, N-{4-[2-(1,2,3,4-tetrahydro-6,7-dimethoxy-2-isoquinolinyl)-ethyl]-phenyl}-9,10-dihydro-5-methoxy-9-oxo-4-acridine carboxamide], for which, in the series with Bcrp1 [2], the “effect on active secretion of topotecan into the milk by Bcrp1” value is “effectively reversed; also recorded: capable of at least in part inhibiting transport of topotecan into the milk”. As to `Cn1c(N)nc2ncc(-c3ccccc3)cc21` [PhIP, 2-amino-1-methyl-6-phenylimidazo[4,5-b]pyridine], on Bcrp1 [1], the “milk-to-plasma (M/P) ratio” value is “<= 1” and the “milk secretion in wild-type mice” value is “highly concentrated into the milk”. `Nc1nc2ncc(CNc3ccc(C(=O)N[C@@H](CCC(=O)O)C(=O)O)cc3)nc2c(=O)[nH]1` [folic acid]: at Bcrp1 [1], the “milk secretion in Bcrp1-/- compared to wild-type mice” value is reported as “not affected”. For `Cc1cc2nc3c(=O)[nH]c(=O)nc-3n(C[C@H](O)[C@H](O)[C@H](O)CO)c2cc1C` [riboflavin], the “ATP-dependent transport by human BCRP” value on human BCRP is on record as “confirmed ATP-dependent transport”. The “decrease in the endogenous milk secretion” value at Bcrp1 [3] came out at 67 fold. Consider `CC[C@@]1(O)C(=O)OCc2c1cc1n(c2=O)Cc2cc3c(CN(C)C)c(O)ccc3nc2-1` [topotecan], for which, on Bcrp1 [1], the “milk-to-plasma (M/P) ratio” value is “<= 1” and the “milk secretion in wild-type mice” value is “highly concentrated into the milk”. As to vitamin B12, the “milk secretion in Bcrp1-/- compared to wild-type mice” value at Bcrp1 [1] is “not affected”.
